Results: article PMC9895061 (Signal Transduction and Targeted Therapy, 2023)
Read-outs that look alike come from different tables or passages of the source.

Key:
PRDX2 = target: T1, PRDX2 (Homo sapiens, UniProt P32119); test: Trx-TrxR-NADPH coupling peroxiredoxin activity assay, PRDX2; type: biochemical
T1 sequence (P32119 1-198): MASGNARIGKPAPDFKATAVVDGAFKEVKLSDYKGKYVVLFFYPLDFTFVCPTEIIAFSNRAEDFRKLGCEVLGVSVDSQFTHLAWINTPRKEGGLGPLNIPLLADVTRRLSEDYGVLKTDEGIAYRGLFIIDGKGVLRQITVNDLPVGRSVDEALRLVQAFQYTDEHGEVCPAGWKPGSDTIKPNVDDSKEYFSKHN

PRDX3 = target: T2, PRDX3 (Homo sapiens, UniProt P30048); test: Trx-TrxR-NADPH coupling peroxiredoxin activity assay, PRDX3; type: biochemical
T2 sequence (P30048 62-256): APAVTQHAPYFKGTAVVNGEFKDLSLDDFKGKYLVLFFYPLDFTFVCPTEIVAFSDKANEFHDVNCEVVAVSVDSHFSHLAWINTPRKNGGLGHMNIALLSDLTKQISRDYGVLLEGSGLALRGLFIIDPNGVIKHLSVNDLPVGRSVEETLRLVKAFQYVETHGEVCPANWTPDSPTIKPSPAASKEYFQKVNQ

PRDX5 = target: T3, PRDX5 (Homo sapiens, UniProt P30044); test: Trx-TrxR-NADPH coupling peroxiredoxin activity assay, PRDX5; type: biochemical
T3 sequence (P30044 53-214): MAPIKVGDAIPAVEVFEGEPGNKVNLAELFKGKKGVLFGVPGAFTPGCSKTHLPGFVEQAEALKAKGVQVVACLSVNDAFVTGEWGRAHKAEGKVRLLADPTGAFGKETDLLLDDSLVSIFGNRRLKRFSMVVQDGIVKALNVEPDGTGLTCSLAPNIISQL

PRDX6 = target: T4, PRDX6 (Homo sapiens, UniProt P30041); test: Trx-TrxR-NADPH coupling peroxiredoxin activity assay, PRDX6; type: biochemical
T4 sequence (P30041 1-224): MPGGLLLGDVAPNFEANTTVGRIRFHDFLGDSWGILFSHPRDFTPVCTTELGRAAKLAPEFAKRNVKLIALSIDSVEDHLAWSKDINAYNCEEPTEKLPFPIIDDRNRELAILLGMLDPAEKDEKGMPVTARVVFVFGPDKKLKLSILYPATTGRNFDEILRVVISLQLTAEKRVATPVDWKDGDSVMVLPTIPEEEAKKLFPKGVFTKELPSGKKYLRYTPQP
Experimental: The assay was conducted in 96-well plates as previously described.[47] […] Then, the mixture solution containing 0.3 µM yeast Trx, 0.15 µM yeast TrxR and 200 µM NADPH was added to assay wells. The reaction was initiated with 100 µM hydrogen peroxide (H2O2) and detected with Thermo Multiskan FC at 340 nm. For PRDX1-6, the work concentration is 0.6 µM, 1.5 µM, 1 µM, 3 µM, 0.5 µM, 10 µM respectively. The initial reaction’s slope of assay wells containing mixture solution and H2O2 without PRDXs and compounds (S100%) were considered as 100 % inhibition of PRDXs’ peroxidase activity. The initial reaction’s slope of assay wells containing mixture solution, H2O2 and PRDXs without compounds (S0%) were considered as 0% inhibition of PRDXs’ peroxidase activity. […] The inhibition rate (%) was calculated from the following equations: 100 – (Scompound − S100%)/(S0% − S100%) × 100. […] Data were analyzed using GraphPad (version 8.0).

SW620 cells [1] = test: CCK-8 proliferation assay, SW620; type: cell-based; settings: Homo sapiens, SW-620; 24 h treatment
Experimental: (§1) SW620 or HCT116 cells were seeded into 96-well plate overnight at 5000 cells per well or 4000 cells per well respectively. […] Cell numbers were assessed using the CCK-8 reagent at OD 450. The IC50 values were calculated by fitting the data points with the dose-response function in GraphPad.

HCT116 cells [2] = test: CCK-8 proliferation assay, HCT116; type: cell-based; settings: Homo sapiens, HCT-116; 24 h treatment
Experimental: as §1

NCM460 cells [3] = test: Proliferation IC50 in NCM460; type: cell-based; settings: Homo sapiens, NCM460, 24 h, read-out: IC50 of proliferation, NCM460
HCT116 cells [4] = test: Cell viability by trypan blue staining, HCT116; settings: for viability at 0.5 µM: Homo sapiens, HCT-116, 24 h, read-out: cells viability, HCT116
Experimental: Total cell number and viability were counted with trypan blue staining. To measure apoptosis, cells were harvested and followed by flow cytometric analysis using the Annexin V-FITC / PI apoptosis detection kit according to the manufacturer’s protocol. Cell apoptosis was analyzed by FlowJo software.
e, f Cell viability were measured by trypan-blue staining.

SW620 cells [5] = test: ROS measurement by DCFH-DA staining and flow cytometry, SW620; type: cell-based, human; settings: 2 μM, 24 h
Experimental: (§2) […]. DCFH-DA was deacetylated by intracellular esterase to a non-fluorescent compound, which was later oxidized by intracellular ROS to the fluorescent DCF. DCF fluorescence was detected using flow cytometer and data was analyzed using FlowJo software (version 10.4).
(§3) g, h ROS measurement of SW620 (g) and HCT116 (h) cells with compounds treatment. […].

HCT116 cells [6] = test: ROS measurement by DCFH-DA staining and flow cytometry, HCT116; type: cell-based, human; settings: 2 μM, 24 h
Experimental: as §2, §3

NCM460 cells [7] = test: ROS measurement by DCFH-DA staining and flow cytometry, NCM460; type: cell-based, human; settings: 2 μM, 24 h
Experimental: as §2
b ROS measurement of NCM460 cells with compounds treatment. […].

gPRDX1 SW620 cells = test: Proliferation IC50 in PRDX1 knockdown (gPRDX1) SW620 cells; type: cell-based; settings: Homo sapiens, SW-620, 24 h, read-out: IC50 against the proliferation of PRDX1 knockdown (gPRDX1) SW620 cells
Experimental: To generate PRDX1 knockdown cell lines, gRNA targeting […] was cloned into the vector pHBLV-U6-gRNA-EF1-CAS9-PURO from HanBio. The gRNA, psPAX2, and pMD2·G plasmids were mixed and co-transfected into HEK293T cells using Lipofectamine 2000 (Thermo Fisher Scientific). Medium with lentiviruses was collected and filtered through 0.45 μm filters at 48 h after transfection. Lentiviruses was used to infect the indicated cells with 8 μg/mL polybrene (Sigma-Aldrich) for 2 days. The infected cells were selected in medium containing 2 μg/mL puromycin (Sigma-Aldrich) for 3 days, and PRDX1 protein expression level were examined by western blot.
as §1

[8] = Body weight of xenograft-bearing nude mice; settings: 2 mg/kg, day 12, average of gNS and gPRDX1 groups
SW620-gNS xenografts = test: SW620-gNS xenograft tumor growth in nude mice; settings: 2 mg/kg intraperitoneally, 5 days per week for 2 weeks

| Structure (SMILES) | IC50 (SW620 cells [1]) [µM] | IC50 (HCT116 cells [2]) [µM] | IC50 (NCM460 cells [3]) [µM] | viability at 0.5 µM (HCT116 cells [4]) [%] | ROS-positive rate, SW620 (SW620 cells [5]) [%] | ROS-positive rate, HCT116 (HCT116 cells [6]) [%] | intracellular ROS positive rate, NCM460 (NCM460 cells [7]) [%] | IC50 (gPRDX1 SW620 cells) [µM] | body weight loss as compared to DMSO control [8] [%] | tumor progression of SW620-gNS xenografts (in words) (SW620-gNS xenografts) | further results |
| --- | --- | --- | --- | --- | --- | --- | --- | --- | --- | --- | --- |
| CC1=C(O)C(=O)C=C2C1=CC=C1[C@@]2(C)CC[C@@]2(C)[C@@H]3C[C@](C)(C(=O)O)CC[C@]3(C)CC[C@]12C [Celastrol, reference compound] | 0.69 | 0.894 | 2.66 | ~80 | 61.07 | 88.4 | 26.5 | 0.494 ± 0.0108 | 11.2 | suppressed the overall tumor progression | IC50 (PRDX2): 3.79 ± 0.26 µM; IC50 (PRDX3): 6.67 ± 0.52 µM; IC50 (PRDX5): 2.3 ± 0.13 µM; IC50 (PRDX6; recombinant PRDX6, 1.5 h incubation, mean ± SEM, triplicate, read-out: IC50 against the peroxidase activity of PRDX6): 27.3 ± 0.39 µM |
| COC(=O)[C@H](C)NC(=O)N[C@]1(C)CC[C@]2(C)CC[C@]3(C)C4=CC=C5C(=CC(=O)C(O)=C5C)[C@]4(C)CC[C@@]3(C)[C@@H]2C1 [19-048, Methyl (((2R,4aS,6aS,12bR,14aS,14bR)-10-hydroxy-2,4a,6a,9,12b,14a-hexamethyl-11-oxo-1,2,3,4,4a,5,6,6a,11,12b,13,14,14a,14b-tetradecahydropicen-2-yl)carbamoyl)-L-alaninate] | 0.528 | 0.816 | 2.23 | ~80 | 74.77 | 91.7 | 29.13 | 0.431 ± 0.00914 | 7.3 | suppressed the overall tumor progression | inhibition of the peroxidase activity of PRDX2 (in words) (PRDX2; recombinant PRDX2): no obvious inhibition; IC50 (PRDX2; recombinant PRDX2, 1.5 h incubation, mean ± SEM, triplicate, read-out: IC50 against the peroxidase activity of PRDX2): > 100 µM; inhibition of the peroxidase activity of PRDX3 (in words) (PRDX3; recombinant PRDX3): no obvious inhibition; IC50 (PRDX3; recombinant PRDX3, 1.5 h incubation, mean ± SEM, triplicate, read-out: IC50 against the peroxidase activity of PRDX3): > 100 µM; inhibition of the peroxidase activity of PRDX5 (in words) (PRDX5; recombinant PRDX5): no obvious inhibition; IC50 (PRDX5; recombinant PRDX5, 1.5 h incubation, mean ± SEM, triplicate, read-out: IC50 against the peroxidase activity of PRDX5): > 100 µM; IC50 (PRDX6): > 100 µM; inhibition of the peroxidase activity of PRDX6 (in words) (PRDX6; recombinant PRDX6): no obvious inhibition; cell viability at high concentrations, HCT116 (in words) (HCT116 cells [4]; 1, 2 μM, 24 h, trypan blue): significantly decreased cell viability |
